Data: BigSolDB 2.1

COCCOC(=O)C1=C(C)NC(C)=C(C(=O)OC(C)C)C1c1cccc([N+](=O)[O-])c1 (centres undefined)
solubility (mole fraction)
Settings | 278.15 K | 283.15 K | 288.15 K | 293.15 K | 298.15 K | 303.15 K | 308.15 K | 313.15 K | 318.15 K
in THF | 0.0141 | 0.016 | 0.0181 | 0.0203 | 0.0229 | 0.0259 | 0.0291 | 0.0324 | 0.0366
in acetone | 0.012 | 0.0136 | 0.0154 | 0.0171 | 0.0193 | 0.0217 | 0.0241 | 0.027 | 0.0295
in acetonitrile | 0.00161 | 0.00191 | 0.00225 | 0.00267 | 0.00311 | 0.00365 | 0.00437 | 0.00503 | 0.00587
in cyclohexanone | 0.0145 | 0.0164 | 0.0184 | 0.021 | 0.0239 | 0.0266 | 0.0297 | 0.0334 | 0.0375
in ethanol | 0.014 | 0.0158 | 0.0176 | 0.0198 | 0.0221 | 0.0247 | 0.0272 | 0.0303 | 0.034
in ethyl acetate | 0.00127 | 0.00145 | 0.0017 | 0.00192 | 0.00221 | 0.00248 | 0.0028 | 0.0032 | 0.00364
in ethyl formate | 0.00152 | 0.0017 | 0.00192 | 0.00218 | 0.00247 | 0.00275 | 0.00305 | 0.00341 | 0.00381
in isobutanol | 0.00706 | 0.00811 | 0.00923 | 0.0107 | 0.0122 | 0.0137 | 0.0156 | 0.0179 | 0.0201
in isopentanol | 0.00609 | 0.00711 | 0.00815 | 0.00953 | 0.011 | 0.0126 | 0.0142 | 0.0166 | 0.0188
in isopropanol | 0.0117 | 0.0132 | 0.0147 | 0.0163 | 0.0183 | 0.0204 | 0.0225 | 0.0249 | 0.0278
in methanol | 0.0157 | 0.0178 | 0.0201 | 0.0229 | 0.0259 | 0.0289 | 0.0327 | 0.0364 | 0.0411
in methyl acetate | 0.00456 | 0.00506 | 0.00573 | 0.00647 | 0.00718 | 0.00813 | 0.00898 | 0.00997 | 0.0112
in n-butanol | 0.0106 | 0.0117 | 0.013 | 0.0145 | 0.0161 | 0.0177 | 0.0195 | 0.0217 | 0.0237
in n-pentanol | 0.00802 | 0.00919 | 0.0103 | 0.0116 | 0.0131 | 0.0145 | 0.0162 | 0.018 | 0.0203
in n-propanol | 0.011 | 0.0123 | 0.0139 | 0.0155 | 0.0173 | 0.0195 | 0.0216 | 0.0241 | 0.0269
in sec-butanol | 0.00977 | 0.0111 | 0.0122 | 0.0134 | 0.0149 | 0.0167 | 0.0181 | 0.0198 | 0.022
